Measurements reported in patent publication US20250367229A1, “Treatment of Immune-Related Disorders, Kidney Disorders, Liver Disorders, Hemolytic Disorders, and Oxidative Stress-Associated Disorders Using NRH, NARH and Reduced Derivatives Thereof” (MitoPower LLC, priority 2021, published 2025).

Key:
CD4^+ T cells [1] = experiment: Mitochondrial membrane depolarization (JC-1, flow cytometry) in CD4+ T cells; format: cell-based, human; details: 250 μM, 24 hr, unstimulated or stimulated with anti-CD3 and anti-CD28 antibodies
Procedure: (§1) PBMCs (10^6 cells per test group) obtained from healthy human adult donors were unstimulated or stimulated with anti-CD3 and anti-CD28 antibodies to induce T-cell activation, in the absence or presence of 250 μM of NRH or NRH-triacetate (NRHTA). Measurements were made at 5, 15 and 24 hr after treatment.
(§2) After the indicated time of incubation, the PBMCs were stained with anti-CD3, anti-CD4 and anti-CD8 antibodies (Biolegend), JC-1 (1 μM, Thermo Fisher) and annexin V (Thermo Fisher) prior to analysis by flow cytometry. Annexin V binds to cell-surface phosphatidylserine, which is a marker for different forms of cell death including apoptosis and necrosis. The stained cells were re-suspended in phosphate-buffered saline (PBS) and acquired in a Cytek Aurora flow cytometer using a FlowJo software (v10) for analysis. About 200,000-300,000 cells were acquired in the flow cytometer for analysis. Standard procedures for spectral compensation were performed to obtain cell populations. Lymphocytes identified by forward and side scatter were gated to obtain CD3^+/CD4^+ and CD3^+/CD8^+ T-cell populations. Those T-cell populations were gated to identify the red and green signals for JC-1 aggregate and monomer, respectively, and annexin V. The percentage of cells staining green by JC-1 monomer was used to determine the percentage of cells with depolarized mitochondria. […]

RBC hemoglobin = experiment: H2O2-induced oxidative changes of RBC hemoglobin in vitro (spectral scans); format: cell-based, human
Procedure: A 4 M stock solution of sodium azide was prepared. One mL of the 4 M stock azide solution was diluted with 9 mL of phosphate-buffered saline (PBS, pH 7.4) to obtain a 0.4 M stock solution, which was further diluted with PBS to obtain a 0.01 M working solution of sodium azide. Eight mL of whole blood was collected in buffered acid citrate dextrose tubes from a healthy human donor. PBS was added to 500 μL of whole blood. The samples were centrifuged, and then the supernatant from each tube was discarded to obtain a red blood cell (RBC) pellet. Ten μL of 0.01 M sodium azide working solution was added to 20 μL of RBC suspension. Twenty μL of hydrogen peroxide (H2O2) diluted in PBS was added to the RBC suspension to obtain final concentrations of H2O2 ranging from 0.01 mM to 100 mM. The samples were incubated at 37° C. for 1.5 hr. 950 μL of de-ionized water was added to the samples, which were then incubated for 10 min to lyse the RBCs and obtain hemoglobin upon centrifugation at 1,500 g. Spectral scans of the lysed samples between 200 nm and 1100 nm were obtained in 2 nm increments, using a Systronics® dual-beam UV-spectrophotometer and de-ionized water as a blank. Samples incubated with PBS at 37° C. for 1-1.5 hr were used as controls to establish the oxidative effects of H2O2 on RBC hemoglobin. Absorbance at 576 nm is a measure of hemoglobin concentration in a sample, and oxidation of hemoglobin to methemoglobin results in a drop in absorbance at 576 nm and an increase in absorbance at 630 nm. Fantao et al., Anal. Biochem., 521:11-19, (2017). Stock solutions of NRH (29.6 mM) and NR (18.3 mM) were prepared in 0.9% normal saline. Appropriate quantities of the stock NRH or NR solution and PBS were added to 500 μL of whole blood to obtain final concentrations of NRH or NR ranging from 1 μM to 1000 μM. The whole blood samples with NRH or NR were mixed gently and incubated at 37° C. for 1-1.5 hr. The samples were centrifuged, and then the supernatant was discarded to obtain an RBC pellet for each sample.

CD8^+ T cells [2] = experiment: Mitochondrial membrane depolarization (JC-1, flow cytometry) in CD8+ T cells; format: cell-based, human; details: 250 μM, 24 hr, unstimulated or stimulated with anti-CD3 and anti-CD28 antibodies
Procedure: as §1, §2

CD4^+ T cells [3] = experiment: Cell death including apoptosis (annexin V, flow cytometry) of CD4+ T cells with depolarized mitochondria; format: cell-based, human; details: 250 μM, 24 hr, unstimulated or stimulated with anti-CD3 and anti-CD28 antibodies
Procedure: as §1, §2

CD8^+ T cells [4] = experiment: Ex vivo polyclonal immune activation model: intracellular cytokine production in CD8+ T cells (flow cytometry); format: cell-based, human; details: 250 μM, 18 hours, PBMCs stimulated with anti-CD3 and anti-CD28 antibodies; p<0.05 Mann-Whitney U test
Procedure: Heparinized venous blood was collected from healthy human adult donors. Peripheral blood mononuclear cells (PBMCs) were isolated by Ficoll-Hypaque density-gradient centrifugation. PBMCs (1.0×10^6) were seeded in round-bottom, 96-well plates in 200 μL of medium, unstimulated or stimulated with an anti-CD3 antibody ([…], clone-HIT3a, Biolegend) plus an anti-CD28 antibody (1 μg/mL, clone-CD28.2, Biolegend) to induce T-cell activation, and incubated in cell-culture medium. The PBMCs were unstimulated or stimulated with anti-CD3 and anti-CD28 antibodies to induce T-cell activation, in the absence or presence of 250 μM NRH. After 18 hours of incubation, lymphocytes were analyzed for intracellular levels of IFN-γ, TNF-α and IL-2 by flow cytometry. Intracellular cytokine production was stopped by treating the cells with Golgi stop after 1 hr of treatment.

CD8^+ T cells [5] = experiment: Cell death including apoptosis (annexin V, flow cytometry) of CD8+ T cells with depolarized mitochondria; format: cell-based, human; details: 250 μM, 24 hr, unstimulated or stimulated with anti-CD3 and anti-CD28 antibodies
Procedure: as §1, §2

HEK293 cells = experiment: NADH/NAD+ ratio in H2O2-exposed HEK293 cells (NAD/NADH-Glo); format: cell-based; details: NRH at 100 and 1000 μM, NR at all tested concentrations (0.01-1000 μM)
Procedure: HEK293 cells were trypsinized and plated at a density of 60,000 cells per well. The cells were then treated with H2O2 (600 μM prepared with Dulbecco's Modified Eagle Medium [DMEM]) for 30 min. The media was then replaced with serum media (DMEM supplemented with 10% fetal bovine serum [FBS]) containing NRH or NR, and were incubated at 37° C. under 6% CO2 for 30 min or 6 hr. The cells were incubated with the following concentrations of NRH or NR: 0.01, 0.1, 1.0, 10, 100 and 1000 μM. NAD^+ and NADH levels at 30 min and 6 hr were estimated using the NAD/NADH-Glo Promega Bioluminescent assay. The results were expressed as fold change relative to the values obtained with untreated cells.

NC(=O)C1=CN([C@@H]2O[C@H](CO)[C@@H](O)[C@H]2O)C=CC1 [NRH, N-(β-D-ribofuranosyl)dihydronicotinamide] was tested, and the “mitochondrial membrane depolarization in CD4+ T cells” value (CD4^+ T cells [1]) was “significantly induced”, the “A576/A630 ratio (a measure of the hemoglobin/methemoglobin ratio)” value (RBC hemoglobin; RBCs exposed to 1 mM H2O2, 1 μM or 100 μM NRH, NR data not shown) was “restored” and the “protection of hemoglobin from 1 mM H2O2-induced oxidative changes (amplitude of absorbance peaks at 576, 540, 434, 348 and 270 nm)” value (RBC hemoglobin; pre-incubation of RBCs with 1, 10 and 100 µM) was “protected hemoglobin”. For the same molecule, the “mitochondrial membrane depolarization in CD8+ T cells” value (CD8^+ T cells [2]) was “significantly induced”, the “cell death including apoptosis of CD4+ T cells with depolarized mitochondria” value (CD4^+ T cells [3]) was “reduced cell death” and the “production of IFN-γ in activated CD8+ T cells” value (CD8^+ T cells [4]) was “significantly reduced”. For the same molecule, the “production of IL-2 in activated CD8+ T cells” value (CD8^+ T cells [4]) was “significantly reduced”, the “production of TNF-α in activated CD8+ T cells” value (CD8^+ T cells [4]) was “significantly reduced” and the “cell death including apoptosis of CD8+ T cells with depolarized mitochondria” value (CD8^+ T cells [5]) was “reduced cell death”. For the same molecule, the “NADH/NAD+ ratio in HEK293 cells exposed to H2O2” value (HEK293 cells; 30 min of incubation) was “significantly increased” and the “NADH/NAD+ ratio in HEK293 cells exposed to H2O2” value (HEK293 cells; 6 hr of incubation) was “significantly increased”.
